Data as given in ChEMBL document CHEMBL3885881, “DrugMatrix”.

Species: Rattus norvegicus
Assay: DrugMatrix - Regimen: Daily Repeat
Type: toxicity, organism-based, Sprague-Dawley
Design: regimen Daily Repeat, gender Male, age 6-8 weeks
Conditions: in vivo, po, 35 mg/kg, route oral GAVAGE, dose level Low, […]; for ABSOLUTE BASOPHIL / ABSOLUTE EOSINOPHIL / ABSOLUTE LYMPHOCYTE / ABSOLUTE MONOCYTE / ABSOLUTE SEGMENTED NEUTROPHIL / BASOPHIL / EOSINOPHIL / ERYTHROCYTE COUNT / HEMATOCRIT / HEMOGLOBIN / LEUKOCYTE COUNT / LYMPHOCYTE / MEAN CORPUSCULAR HEMOGLOBIN / MEAN CORPUSCULAR HEMOGLOBIN CONCENTRATION / MEAN CORPUSCULAR VOLUME / MONOCYTE / NEUTROPHIL / NUCLEATED RED BLOOD CELLS / PLATELET COUNT: tissue Blood; for ALANINE AMINOTRANSFERASE / ALBUMIN / ALKALINE PHOSPHATASE / ASPARTATE AMINOTRANSFERASE / BLOOD UREA NITROGEN / CARBON DIOXIDE / CHLORIDE / CHOLESTEROL / CREATINE PHOSPHOKINASE / CREATININE / GLUCOSE / LACTATE DEHYDROGENASE / LIPASE / PHOSPHORUS / POTASSIUM / SODIUM / TOTAL BILIRUBIN / TOTAL PROTEIN / URIC ACID: tissue Plasma

SMILES: CC(=O)Oc1ccccc1C(=O)O [ASPIRIN]
- ABSOLUTE BASOPHIL (72 h, time 3 day): 0 CELLS/uL
- ABSOLUTE EOSINOPHIL (72 h, time 3 day): 58.67 CELLS/uL
- ABSOLUTE LYMPHOCYTE (72 h, time 3 day): 9448 CELLS/uL
- ABSOLUTE MONOCYTE (72 h, time 3 day): 29.33 CELLS/uL
- ABSOLUTE SEGMENTED NEUTROPHIL (72 h, time 3 day): 530.67 CELLS/uL
- BASOPHIL (72 h, time 3 day): 0%
- EOSINOPHIL (72 h, time 3 day): 0.67%
- ERYTHROCYTE COUNT (72 h, time 3 day): 4.69 x10E6/uL
- HEMATOCRIT (72 h, time 3 day): 30.17%
- HEMOGLOBIN (72 h, time 3 day): 12.1 G/DL
- LEUKOCYTE COUNT (72 h, time 3 day): 10.07 x10E3/uL
- LYMPHOCYTE (72 h, time 3 day): 93.33%
- MEAN CORPUSCULAR HEMOGLOBIN (72 h, time 3 day): 25.83 pg
- MEAN CORPUSCULAR HEMOGLOBIN CONCENTRATION (72 h, time 3 day): 40.1 G/DL
- MEAN CORPUSCULAR VOLUME (72 h, time 3 day): 64.4 fL
- MONOCYTE (72 h, time 3 day): 0.33%
- NEUTROPHIL (72 h, time 3 day): 5.67%
- NUCLEATED RED BLOOD CELLS (72 h, time 3 day): 0 /100WBC
- PLATELET COUNT (72 h, time 3 day): 951 x10E3/uL
- ALANINE AMINOTRANSFERASE (72 h, time 3 day): 86 u/L
- ALBUMIN (72 h, time 3 day): 4.17 G/DL
- ALKALINE PHOSPHATASE (72 h, time 3 day): 369 u/L
- ASPARTATE AMINOTRANSFERASE (72 h, time 3 day): 104.67 u/L
- BLOOD UREA NITROGEN (72 h, time 3 day): 13.5 mg/dL
- CARBON DIOXIDE (72 h, time 3 day): 32 mmol/L
- CHLORIDE (72 h, time 3 day): 101.33 MEQ/L
- CHOLESTEROL (72 h, time 3 day): 79.33 mg/dL
- CREATINE PHOSPHOKINASE (72 h, time 3 day): 304 u/L
- CREATININE (72 h, time 3 day): 0.15 mg/dL
- GLUCOSE (72 h, time 3 day): 156 mg/dL
- LACTATE DEHYDROGENASE (72 h, time 3 day): 85.33 u/L
- LIPASE (72 h, time 3 day): 23.33 u/L
- PHOSPHORUS (72 h, time 3 day): 9.53 mg/dL
- POTASSIUM (72 h, time 3 day): 5.79 MEQ/L
- SODIUM (72 h, time 3 day): 145.73 MEQ/L
- TOTAL BILIRUBIN (72 h, time 3 day): 0.2 mg/dL
- TOTAL PROTEIN (72 h, time 3 day): 5.7 G/DL
- URIC ACID (72 h, time 3 day): 0.53 mg/dL
- ABSOLUTE BASOPHIL (120 h, time 5 day): 0 CELLS/uL
- ABSOLUTE EOSINOPHIL (120 h, time 5 day): 0 CELLS/uL
- ABSOLUTE LYMPHOCYTE (120 h, time 5 day): 9532 CELLS/uL
- ABSOLUTE MONOCYTE (120 h, time 5 day): 142 CELLS/uL
- ABSOLUTE SEGMENTED NEUTROPHIL (120 h, time 5 day): 926 CELLS/uL
- BASOPHIL (120 h, time 5 day): 0%
- EOSINOPHIL (120 h, time 5 day): 0%
- ERYTHROCYTE COUNT (120 h, time 5 day): 5.39 x10E6/uL
- HEMATOCRIT (120 h, time 5 day): 34.33%
- HEMOGLOBIN (120 h, time 5 day): 13.4 G/DL
- LEUKOCYTE COUNT (120 h, time 5 day): 10.6 x10E3/uL
- LYMPHOCYTE (120 h, time 5 day): 90%
- MEAN CORPUSCULAR HEMOGLOBIN (120 h, time 5 day): 24.83 pg
- MEAN CORPUSCULAR HEMOGLOBIN CONCENTRATION (120 h, time 5 day): 39.03 G/DL
- MEAN CORPUSCULAR VOLUME (120 h, time 5 day): 63.63 fL
- MONOCYTE (120 h, time 5 day): 1.33%
- NEUTROPHIL (120 h, time 5 day): 8.67%
- NUCLEATED RED BLOOD CELLS (120 h, time 5 day): 0 /100WBC
- PLATELET COUNT (120 h, time 5 day): 1012.67 x10E3/uL
- ALANINE AMINOTRANSFERASE (120 h, time 5 day): 59 u/L
- ALBUMIN (120 h, time 5 day): 4.1 G/DL
- ALKALINE PHOSPHATASE (120 h, time 5 day): 356.67 u/L
- ASPARTATE AMINOTRANSFERASE (120 h, time 5 day): 89.33 u/L
- BLOOD UREA NITROGEN (120 h, time 5 day): 11.33 mg/dL
- CARBON DIOXIDE (120 h, time 5 day): 27.67 mmol/L
- CHLORIDE (120 h, time 5 day): 98.67 MEQ/L
- CHOLESTEROL (120 h, time 5 day): 69 mg/dL
- CREATINE PHOSPHOKINASE (120 h, time 5 day): 329.67 u/L
- CREATININE (120 h, time 5 day): 0.17 mg/dL
- GLUCOSE (120 h, time 5 day): 164.33 mg/dL
- LACTATE DEHYDROGENASE (120 h, time 5 day): 89 u/L
- LIPASE (120 h, time 5 day): 11.67 u/L
- PHOSPHORUS (120 h, time 5 day): 9.13 mg/dL
- POTASSIUM (120 h, time 5 day): 5.65 MEQ/L
- SODIUM (120 h, time 5 day): 145.03 MEQ/L
- TOTAL BILIRUBIN (120 h, time 5 day): 0.2 mg/dL
- TOTAL PROTEIN (120 h, time 5 day): 6.13 G/DL
- URIC ACID (120 h, time 5 day): 0.57 mg/dL
